According to patent US9346809B2 (LEO PHARMA A/S, priority 2009, dated 2016):
pEC50: −log10 of the molar value.

Tests used:
Assay type in all cases: biochemical
[1] = molecular target: T1, JAK2 (catalytic domain, His-tag) (Homo sapiens, UniProt O60674); assay: JAK kinase assay (HTRF, phosphorylation of TK substrate-biotin), JAK2; conditions: HTRF assay, ATP at Km (4 μM); read-out: JAK2 kinase inhibitory activity (EC50 indicator)
T1 construct: All four purified enzymes contain only the catalytic domain; His (N); purchased Carna Biosciences, Inc; host or cells: baculovirus expression system
Summary of the method: (§1)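 HTRF KinEASE TK format; 1 μM biotinylated peptide, Km ATP: 7 μM (JAK1, 10 mM MgCl2, 50 nM SEB), 4 μM (JAK2), 2 μM (JAK3), 13 μM (TYK2, 50 nM SEB); 5 mM MgCl2 for the latter three. RT 20-30 min, 0.75% DMSO final. Overnight detection, EC50.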

[2] = molecular target: T2, JAK3 (catalytic domain, His-tag) (Homo sapiens, UniProt P52333); assay: JAK kinase assay (HTRF, phosphorylation of TK substrate-biotin), JAK3; conditions: HTRF assay, ATP at Km (2 μM); read-out: JAK3 kinase inhibitory activity (EC50 indicator)
T2 construct: All four purified enzymes contain only the catalytic domain; His (N); purchased Carna Biosciences, Inc; host or cells: baculovirus expression system
Summary of the method: as §1

[3] = molecular target: T3, JAK1 (aa 850-1154, catalytic domain, GST-tag) (Homo sapiens, UniProt P23458); assay: JAK kinase assay (HTRF, phosphorylation of TK substrate-biotin), JAK1; conditions: HTRF assay, ATP at Km (7 μM); read-out: JAK1 kinase inhibitory activity (EC50 indicator)
T3 construct: JAK1 (aa 850-1154) and TYK2 (aa 871-1187) are expressed with an N-terminally fused GST-tag; GST (N); purchased Carna Biosciences, Inc; host or cells: baculovirus expression system
Summary of the method: as §1

[4] = molecular target: T4, TYK2 (aa 871-1187, catalytic domain, GST-tag) (Homo sapiens, UniProt P29597); assay: JAK kinase assay (HTRF, phosphorylation of TK substrate-biotin), TYK2; conditions: HTRF assay, ATP at Km (13 μM); read-out: TYK2 kinase inhibitory activity (EC50 indicator)
T4 construct: JAK1 (aa 850-1154) and TYK2 (aa 871-1187) are expressed with an N-terminally fused GST-tag; GST (N); purchased Carna Biosciences, Inc; host or cells: baculovirus expression system
T4 sequence (P29597 871-1187): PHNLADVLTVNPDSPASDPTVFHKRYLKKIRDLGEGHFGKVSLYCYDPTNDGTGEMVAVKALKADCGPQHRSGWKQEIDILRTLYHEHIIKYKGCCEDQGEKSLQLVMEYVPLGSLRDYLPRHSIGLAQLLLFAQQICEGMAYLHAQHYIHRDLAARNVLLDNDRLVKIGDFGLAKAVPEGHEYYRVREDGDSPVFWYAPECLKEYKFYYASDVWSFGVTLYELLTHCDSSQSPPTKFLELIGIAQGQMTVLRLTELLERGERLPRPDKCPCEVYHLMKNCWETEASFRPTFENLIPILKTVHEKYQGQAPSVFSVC
Summary of the method: as §1

T3 sequence (P23458 850-1154): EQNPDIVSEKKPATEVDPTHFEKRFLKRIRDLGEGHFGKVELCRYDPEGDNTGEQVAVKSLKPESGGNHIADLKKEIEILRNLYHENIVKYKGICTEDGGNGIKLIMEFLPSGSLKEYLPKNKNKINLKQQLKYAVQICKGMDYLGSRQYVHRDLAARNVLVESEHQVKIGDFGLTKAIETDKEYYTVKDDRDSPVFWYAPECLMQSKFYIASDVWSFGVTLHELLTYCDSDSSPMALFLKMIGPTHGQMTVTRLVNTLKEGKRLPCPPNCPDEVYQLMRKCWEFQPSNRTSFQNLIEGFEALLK
T1 sequence (O60674 849-1124 limits assumed): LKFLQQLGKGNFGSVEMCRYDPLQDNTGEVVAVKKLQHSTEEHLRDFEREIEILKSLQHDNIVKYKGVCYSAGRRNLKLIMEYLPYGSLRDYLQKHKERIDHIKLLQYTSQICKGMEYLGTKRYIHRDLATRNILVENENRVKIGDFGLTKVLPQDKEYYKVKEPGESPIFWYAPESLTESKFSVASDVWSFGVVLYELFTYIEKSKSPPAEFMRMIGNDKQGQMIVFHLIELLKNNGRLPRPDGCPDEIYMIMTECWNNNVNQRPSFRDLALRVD
T2 sequence (P52333 822-1111 limits assumed): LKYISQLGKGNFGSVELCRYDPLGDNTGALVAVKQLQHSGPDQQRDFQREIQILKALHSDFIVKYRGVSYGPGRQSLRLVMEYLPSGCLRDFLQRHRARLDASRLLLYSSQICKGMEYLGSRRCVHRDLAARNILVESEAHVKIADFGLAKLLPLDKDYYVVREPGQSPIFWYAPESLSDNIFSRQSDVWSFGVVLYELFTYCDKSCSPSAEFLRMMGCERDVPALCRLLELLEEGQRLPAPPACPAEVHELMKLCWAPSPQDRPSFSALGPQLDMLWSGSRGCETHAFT

SMILES	pEC50 [1]	pEC50 [2]	pEC50 [3]	pEC50 [4]
Cc1c[nH]c2ncnc(N3CCN(C(=O)C4(C#N)CC4)C4(CC4)C3)c12 [Example 329, 1-[7-(5-Methyl-7H-pyrrolo[2,3-d]pyrimidin-4-yl)-4,7-diaza-spiro[2.5]octane-4-carbonyl]-cyclopropanecarbonitrile]	< 6.30	< 6.30	< 6.30	< 6.30
Cc1c[nH]c2ncnc(N3CCN(C(=O)Cc4ccc(F)cc4)C4(CC4)C3)c12 [Example 330, 2-(4-Fluoro-phenyl)-1-[7-(5-methyl-7H-pyrrolo[2,3-d]pyrimidin-4-yl)-4,7-diaza-spiro[2.5]oct-4-yl]-ethanone]	6.30 to 7.00	6.30 to 7.00	6.30 to 7.00	< 6.30
Cc1c[nH]c2ncnc(N3CCN(C(=O)Cc4ccc(C(F)(F)F)cc4)C4(CC4)C3)c12 [Example 331, 1-[7-(5-Methyl-7H-pyrrolo[2,3-d]pyrimidin-4-yl)-4,7-diaza-spiro[2.5]oct-4-yl]-2-(4-trifluoromethyl-phenyl)-ethanone]	6.30 to 7.00	> 7.00	6.30 to 7.00	< 6.30
Cc1c[nH]c2ncnc(N3CCN(C(=O)CCCC#N)C4(CC4)C3)c12 [Example 332, 5-[7-(5-Methyl-7H-pyrrolo[2,3-d]pyrimidin-4-yl)-4,7-diaza-spiro[2.5]oct-4-yl]-5-oxo-pentanenitrile]	< 6.30	< 6.30	< 6.30	< 6.30
Cc1c[nH]c2ncnc(N3CCN(C(=O)Cc4cccc(C#N)c4)C4(CC4)C3)c12 [Example 333, 3-{2-[7-(5-Methyl-7H-pyrrolo[2,3-d]pyrimidin-4-yl)-4,7-diaza-spiro[2.5]oct-4-yl]-2-oxo-ethyl}-benzonitrile]	< 6.30	< 6.30	< 6.30	< 6.30
Cc1c[nH]c2ncnc(N3CCN(C(=O)Cc4ccc(C#N)cc4)C4(CC4)C3)c12 [Example 334, 4-{2-[7-(5-Methyl-7H-pyrrolo[2,3-d]pyrimidin-4-yl)-4,7-diaza-spiro[2.5]oct-4-yl]-2-oxo-ethyl}-benzonitrile]	> 7.00	> 7.00	6.30 to 7.00	< 6.30
Cc1c[nH]c2ncnc(N3CCN(C(=O)CCC#N)C4(CC4)C3)c12 [Example 335, 4-[7-(5-Methyl-7H-pyrrolo[2,3-d]pyrimidin-4-yl)-4,7-diaza-spiro[2.5]oct-4-yl]-4-oxo-butyronitrile]	< 6.30	< 6.30	< 6.30	< 6.30
COC(=O)c1cc2c(N3CCN(C(=O)C4(C#N)CC4)C4(CC4)C3)ncnc2[nH]1 [Example 336, 4-[4-(1-Cyano-cyclopropanecarbonyl)-4,7-diaza-spiro[2.5]oct-7-yl]-7H-pyrrolo[2,3-d]pyrimidine-6-carboxylic acid methyl ester]	< 6.30	< 6.30	< 6.30	< 6.30
COC(=O)c1cc2c(N3CCN(C(=O)Cc4ccc(F)cc4)C4(CC4)C3)ncnc2[nH]1 [Example 337, 4-{4-[2-(4-Fluoro-phenyl)-acetyl]-4,7-diaza-spiro[2.5]oct-7-yl}-7H-pyrrolo[2,3-d]pyrimidine-6-carboxylic acid methyl ester]	< 6.30	< 6.30	< 6.30	< 6.30
COC(=O)c1cc2c(N3CCN(C(=O)Cc4ccc(C(F)(F)F)cc4)C4(CC4)C3)ncnc2[nH]1 [Example 338, 4-{4-[2-(4-Trifluoromethyl-phenyl)-acetyl]-4,7-diaza-spiro[2.5]oct-7-yl}-7H-pyrrolo[2,3-d]pyrimidine-6-carboxylic acid methyl ester]	< 6.30	< 6.30	< 6.30	< 6.30
COC(=O)c1cc2c(N3CCN(C(=O)CCCC#N)C4(CC4)C3)ncnc2[nH]1 [Example 339, 4-[4-(4-Cyano-butyryl)-4,7-diaza-spiro[2.5]oct-7-yl]-7H-pyrrolo[2,3-d]pyrimidine-6-carboxylic acid methyl ester]	< 6.30	< 6.30	< 6.30	< 6.30
COC(=O)c1cc2c(N3CCN(C(=O)CCC#N)C4(CC4)C3)ncnc2[nH]1 [Example 340]	< 6.30	< 6.30	< 6.30	< 6.30
O=C(c1ccc2[nH]ccc2c1)N1[C@@H]2CC[C@H]1CN(c1ncnc3[nH]ccc13)C2 [Example 341, (1H-Indol-5-yl)-[3-(7H-pyrrolo[2,3-d]pyrimidin-4-yl)-3,8-diaza-bicyclo[3.2.1]oct-8-yl]-methanone]	> 7.00	> 7.00	> 7.00	6.30 to 7.00
O=C(c1cccc2[nH]ccc12)N1[C@@H]2CC[C@H]1CN(c1ncnc3[nH]ccc13)C2 [Example 344, (1H-Indol-4-yl)-[3-(7H-pyrrolo[2,3-d]pyrimidin-4-yl)-3,8-diaza-bicyclo[3.2.1]oct-8-yl]-methanone]	> 7.00	> 7.00	6.30 to 7.00	6.30 to 7.00
O=C(c1cnc2ccccc2n1)N1[C@@H]2CC[C@H]1CN(c1ncnc3[nH]ccc13)C2 [Example 345, [3-(7H-Pyrrolo[2,3-d]pyrimidin-4-yl)-3,8-diaza-bicyclo[3.2.1]oct-8-yl]-quinoxalin-2-yl-methanone]	> 7.00	6.30 to 7.00	> 7.00	< 6.30

Next, values leading:

pEC50 [1]	pEC50 [2]	pEC50 [3]	pEC50 [4]	SMILES
> 7.00	6.30 to 7.00	> 7.00	< 6.30	N#CCOc1ccc(C(=O)N2[C@@H]3CC[C@@H]2CN(c2ncnc4[nH]ccc24)C3)cc1 [Example 342, {4-[3-(7H-Pyrrolo[2,3-d]pyrimidin-4-yl)-3,8-diaza-bicyclo[3.2.1]octane-8-carbonyl]-phenoxy}-acetonitrile]
> 7.00	6.30 to 7.00	> 7.00	< 6.30	N#CCOc1cccc(C(=O)N2[C@@H]3CC[C@@H]2CN(c2ncnc4[nH]ccc24)C3)c1 [Example 343, {3-[3-(7H-Pyrrolo[2,3-d]pyrimidin-4-yl)-3,8-diaza-bicyclo[3.2.1]octane-8-carbonyl]-phenoxy}-acetonitrile]
6.30 to 7.00	< 6.30	6.30 to 7.00	< 6.30	N#CCc1cccc(CC(=O)N2[C@@H]3CC[C@@H]2CN(c2ncnc4[nH]ccc24)C3)c1 [Example 346, (3-{2-Oxo-2-[3-(7H-pyrrolo[2,3-d]pyrimidin-4-yl)-3,8-diaza-bicyclo[3.2.1]oct-8-yl]-ethyl}-phenyl)-acetonitrile]
6.30 to 7.00	< 6.30	6.30 to 7.00	< 6.30	N#CCc1ccc(CC(=O)N2[C@@H]3CC[C@@H]2CN(c2ncnc4[nH]ccc24)C3)cc1 [Example 347, (4-{2-Oxo-2-[3-(7H-pyrrolo[2,3-d]pyrimidin-4-yl)-3,8-diaza-bicyclo[3.2.1]oct-8-yl]-ethyl}-phenyl)-acetonitrile]
> 7.00	> 7.00	> 7.00	< 6.30	O=C(c1cc2ccccc2[nH]1)N1[C@@H]2CC[C@H]1CN(c1ncnc3[nH]ccc13)C2 [Example 348, (1H-Indol-2-yl)-[3-(7H-pyrrolo[2,3-d]pyrimidin-4-yl)-3,8-diaza-bicyclo[3.2.1]oct-8-yl]-methanone]
6.30 to 7.00	6.30 to 7.00	6.30 to 7.00	< 6.30	O=C(Cc1ccc(C(F)(F)F)cc1)N1[C@@H]2CC[C@@H]1CN(c1ncnc3[nH]ccc13)C2 [Example 349, 1-[3-(7H-Pyrrolo[2,3-d]pyrimidin-4-yl)-3,8-diaza-bicyclo[3.2.1]oct-8-yl]-2-(4-trifluoromethyl-phenyl)-ethanone]
> 7.00	> 7.00	> 7.00	6.30 to 7.00	N#Cc1ccc(C(=O)N2[C@@H]3CC[C@@H]2CN(c2ncnc4[nH]ccc24)C3)cc1F [Example 350, 2-Fluoro-4-[3-(7H-pyrrolo[2,3-d]pyrimidin-4-yl)-3,8-diaza-bicyclo[3.2.1]octane-8-carbonyl]-benzonitrile]
> 7.00	6.30 to 7.00	> 7.00	< 6.30	N#Cc1ccc(C(=O)N2[C@@H]3CC[C@@H]2CN(c2ncnc4[nH]ccc24)C3)c(F)c1 [Example 351, 3-Fluoro-4-[3-(7H-pyrrolo[2,3-d]pyrimidin-4-yl)-3,8-diaza-bicyclo[3.2.1]octane-8-carbonyl]-benzonitrile]
